# Test results from ChEMBL document CHEMBL5678816, “A Next-Generation TRK Kinase Inhibitor Overcomes Acquired Resistance to Prior TRK Kinase Inhibition in Patients with TRK Fusion-Positive Solid Tumors” (Cancer Discov, 2017).
# Activity calls are given as the source filed them. No cut-off for these calls is given here.
# Tests used:
# [1] = target: Platelet-derived growth factor receptor beta (Homo sapiens) (UniProt P09619); experiment: Inhibition of PDGFRbeta (unknown origin) at 1 uM in presence of ATP relative to control; values are per cent of control
# Chain of Platelet-derived growth factor receptor beta (Homo sapiens) (P09619 whole entry): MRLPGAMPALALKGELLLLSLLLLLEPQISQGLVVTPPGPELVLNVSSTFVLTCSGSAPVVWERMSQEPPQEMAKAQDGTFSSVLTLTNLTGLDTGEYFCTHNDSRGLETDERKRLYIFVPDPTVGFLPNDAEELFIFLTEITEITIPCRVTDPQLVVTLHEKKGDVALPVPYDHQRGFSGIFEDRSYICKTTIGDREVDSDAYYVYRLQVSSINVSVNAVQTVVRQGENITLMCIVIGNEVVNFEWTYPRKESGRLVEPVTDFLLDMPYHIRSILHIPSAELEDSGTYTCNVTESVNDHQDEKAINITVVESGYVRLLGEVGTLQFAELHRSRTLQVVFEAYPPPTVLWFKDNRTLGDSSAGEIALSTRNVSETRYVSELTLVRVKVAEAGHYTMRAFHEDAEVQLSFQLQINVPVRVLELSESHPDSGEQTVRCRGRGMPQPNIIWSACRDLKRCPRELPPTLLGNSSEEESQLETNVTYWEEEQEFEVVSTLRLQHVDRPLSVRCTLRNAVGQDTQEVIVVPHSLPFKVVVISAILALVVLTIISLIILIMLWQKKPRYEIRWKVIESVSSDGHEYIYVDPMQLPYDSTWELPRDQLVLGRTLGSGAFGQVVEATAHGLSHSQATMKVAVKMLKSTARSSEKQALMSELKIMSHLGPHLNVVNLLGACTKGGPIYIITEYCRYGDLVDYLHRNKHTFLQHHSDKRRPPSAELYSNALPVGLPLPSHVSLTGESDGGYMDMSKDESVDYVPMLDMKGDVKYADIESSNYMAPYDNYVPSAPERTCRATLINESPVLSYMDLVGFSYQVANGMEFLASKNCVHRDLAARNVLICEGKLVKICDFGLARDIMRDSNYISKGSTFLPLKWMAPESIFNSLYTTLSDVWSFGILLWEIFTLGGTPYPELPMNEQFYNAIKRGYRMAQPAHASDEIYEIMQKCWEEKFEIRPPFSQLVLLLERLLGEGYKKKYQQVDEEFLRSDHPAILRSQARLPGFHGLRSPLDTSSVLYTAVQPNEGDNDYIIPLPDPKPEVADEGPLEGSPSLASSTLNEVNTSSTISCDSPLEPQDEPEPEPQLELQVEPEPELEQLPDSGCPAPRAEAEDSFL
# [2] = target: Dual specificity protein kinase CLK3 (Homo sapiens) (UniProt P49761); experiment: Inhibition of CLK3 (unknown origin) at 1 uM in presence of ATP relative to control; values are per cent of control
# Chain of Dual specificity protein kinase CLK3 (Homo sapiens) (P49761 whole entry, looked up): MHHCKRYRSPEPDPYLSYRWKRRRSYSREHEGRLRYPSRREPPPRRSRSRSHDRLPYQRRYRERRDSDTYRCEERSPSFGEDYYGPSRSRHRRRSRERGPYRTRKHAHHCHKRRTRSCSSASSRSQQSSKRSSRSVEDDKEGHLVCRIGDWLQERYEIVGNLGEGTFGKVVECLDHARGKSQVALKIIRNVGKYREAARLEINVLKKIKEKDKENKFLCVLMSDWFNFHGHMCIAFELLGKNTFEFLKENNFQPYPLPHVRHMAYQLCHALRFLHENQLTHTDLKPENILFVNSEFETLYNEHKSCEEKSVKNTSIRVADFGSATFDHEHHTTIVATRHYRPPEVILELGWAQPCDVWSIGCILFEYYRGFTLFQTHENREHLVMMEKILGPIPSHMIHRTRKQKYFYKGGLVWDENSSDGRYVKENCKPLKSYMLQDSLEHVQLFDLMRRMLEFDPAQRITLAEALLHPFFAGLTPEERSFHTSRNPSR
# [3] = target: Hepatocyte growth factor receptor (Homo sapiens) (UniProt P08581); experiment: Inhibition of Met (unknown origin) at 1 uM in presence of ATP relative to control; values are per cent of control
# [4] = target: Serine/threonine-protein kinase D1 (Homo sapiens) (UniProt Q15139); experiment: Inhibition of PKD1 (unknown origin) at 1 uM in presence of ATP relative to control; values are per cent of control
# Chain of Serine/threonine-protein kinase D1 (Homo sapiens) (Q15139 whole entry): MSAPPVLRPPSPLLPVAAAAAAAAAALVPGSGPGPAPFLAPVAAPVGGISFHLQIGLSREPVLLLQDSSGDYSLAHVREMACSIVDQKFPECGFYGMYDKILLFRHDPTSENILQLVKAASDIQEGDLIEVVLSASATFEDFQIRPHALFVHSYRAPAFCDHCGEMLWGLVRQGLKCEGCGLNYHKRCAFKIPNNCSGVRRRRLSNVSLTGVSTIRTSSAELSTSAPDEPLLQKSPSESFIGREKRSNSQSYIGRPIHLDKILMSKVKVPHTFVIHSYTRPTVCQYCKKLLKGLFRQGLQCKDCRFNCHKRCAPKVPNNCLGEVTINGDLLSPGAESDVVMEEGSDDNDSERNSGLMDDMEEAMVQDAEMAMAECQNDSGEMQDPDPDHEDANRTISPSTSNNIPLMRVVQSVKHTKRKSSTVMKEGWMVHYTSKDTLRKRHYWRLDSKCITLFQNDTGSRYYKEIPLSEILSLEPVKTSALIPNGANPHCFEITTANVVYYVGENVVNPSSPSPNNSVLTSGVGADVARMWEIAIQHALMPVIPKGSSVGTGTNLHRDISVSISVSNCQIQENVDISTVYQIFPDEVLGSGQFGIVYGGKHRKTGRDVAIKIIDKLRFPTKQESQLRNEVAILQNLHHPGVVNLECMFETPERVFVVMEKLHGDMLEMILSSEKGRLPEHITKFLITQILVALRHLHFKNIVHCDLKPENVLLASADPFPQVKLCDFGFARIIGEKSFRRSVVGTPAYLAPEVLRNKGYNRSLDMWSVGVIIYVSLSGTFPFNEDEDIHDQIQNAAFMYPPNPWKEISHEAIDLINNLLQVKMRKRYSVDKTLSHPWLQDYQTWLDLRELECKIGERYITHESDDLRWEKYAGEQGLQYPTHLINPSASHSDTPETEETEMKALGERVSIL
# [5] = Cmin in pediatric patient with recurrent ETV6-NTRK3-rearranged infantile fibrosarcoma at 20 mg administered twice a day as liquid formulation for 1 day and measured 12 hrs post dose by LC-MS/MS analysis; type: ADME; conditions: human, in vivo, read-out: Cmin
# [6] = target: Serine/threonine-protein kinase Sgk3 (Homo sapiens) (UniProt Q96BR1); experiment: Inhibition of SGK3 (unknown origin) at 1 uM in presence of ATP relative to control; values are per cent of control
# Homo sapiens = species: Homo sapiens; experiment: Inhibition of TEC Activated (unknown origin) at 1 uM in presence of ATP relative to control; values are per cent of control
# NIH3T3 = experiment: In vivo inhibition of […] in nu/nu NCr mouse implanted with mouse NIH3T3 cells harboring extracellular domain deleted […] assessed as reduction in […] phosphorylation at 60 mg/kg, po administered once daily for 3 days and measured after 2 hrs post last dose by ELISA; type: functional, organism-based; conditions: time 3.0 day
# [7] = Inhibition of cell proliferation in ETV6-NTRK3 fusion positive human MO-91 cells incubated for 72 hrs by DAPI staining based analysis; type: functional; conditions: MO-91, 72 h
# BHT-101 = experiment: Inhibition of cell proliferation in human BHT-101 cells upto 10 umol/L incubated for 72 hrs by DAPI staining based analysis; type: functional; conditions: dose <= 10.0 µmol/L
# [8] = target: CDK9/cyclin T1 (Homo sapiens) (UniProt O60563+P50750); experiment: Inhibition of CDK9/cyclinT1 (unknown origin) at 1 uM in presence of ATP relative to control; values are per cent of control
# [9] = target: Serine/threonine-protein kinase TAO3 (Homo sapiens) (UniProt Q9H2K8); experiment: Inhibition of TAO3 (unknown origin) at 1 uM in presence of ATP relative to control; values are per cent of control
# [10] = target: Platelet-derived growth factor receptor alpha (Homo sapiens) (UniProt P16234); experiment: Inhibition of PDGFRalpha (unknown origin) at 1 uM in presence of ATP relative to control; values are per cent of control
# [11] = target: Receptor-type tyrosine-protein kinase FLT3 (Homo sapiens) (UniProt P36888); experiment: Inhibition of FLt3 (unknown origin) at 1 uM in presence of ATP relative to control; values are per cent of control
# [12] = target: Homeodomain-interacting protein kinase 3 (Homo sapiens) (UniProt Q9H422); experiment: Inhibition of HIPK3 (unknown origin) at 1 uM in presence of ATP relative to control; values are per cent of control
# [13] = target: Ribosomal protein S6 kinase alpha-3 (Homo sapiens) (UniProt P51812); experiment: Inhibition of Rsk2 (unknown origin) at 1 uM in presence of ATP relative to control; values are per cent of control
# [14] = target: Maternal embryonic leucine zipper kinase (Homo sapiens) (UniProt Q14680); experiment: Inhibition of MELK (unknown origin) at 1 uM in presence of ATP relative to control; values are per cent of control
# Chain of Maternal embryonic leucine zipper kinase (Homo sapiens) (Q14680 whole entry, looked up): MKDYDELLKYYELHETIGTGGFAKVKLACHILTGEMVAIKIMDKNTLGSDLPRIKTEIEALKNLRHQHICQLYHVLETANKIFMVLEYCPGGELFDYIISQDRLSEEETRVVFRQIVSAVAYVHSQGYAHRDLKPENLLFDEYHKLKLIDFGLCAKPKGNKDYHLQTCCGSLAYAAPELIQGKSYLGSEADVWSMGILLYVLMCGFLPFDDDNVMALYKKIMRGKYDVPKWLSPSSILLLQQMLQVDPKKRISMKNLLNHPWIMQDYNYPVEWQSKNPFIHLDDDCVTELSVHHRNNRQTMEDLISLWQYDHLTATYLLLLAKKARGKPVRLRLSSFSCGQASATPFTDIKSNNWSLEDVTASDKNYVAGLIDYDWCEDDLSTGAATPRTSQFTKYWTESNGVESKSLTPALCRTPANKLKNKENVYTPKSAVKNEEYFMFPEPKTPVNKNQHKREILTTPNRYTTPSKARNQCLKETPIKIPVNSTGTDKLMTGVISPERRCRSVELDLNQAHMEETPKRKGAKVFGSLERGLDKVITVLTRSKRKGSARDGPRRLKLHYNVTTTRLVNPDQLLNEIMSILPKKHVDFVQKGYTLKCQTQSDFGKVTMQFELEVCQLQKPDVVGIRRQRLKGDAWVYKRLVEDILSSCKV
# [15] = target: Serine/threonine-protein kinase BRSK2 (Homo sapiens) (UniProt Q8IWQ3); experiment: Inhibition of BrSK2 (unknown origin) at 1 uM in presence of ATP relative to control; values are per cent of control
# SNU-16 = experiment: Inhibition of cell proliferation in human SNU-16 cells upto 10 umol/L incubated for 72 hrs by DAPI staining based analysis; type: functional; conditions: dose <= 10.0 µmol/L
# HT-29 = experiment: Inhibition of cell proliferation in human HT-29 cells upto 10 umol/L incubated for 72 hrs by DAPI staining based analysis; type: functional; conditions: dose <= 10.0 µmol/L
# SAOS-2 = experiment: Inhibition of cell proliferation in human SAOS-2 cells upto 10 umol/L incubated for 72 hrs by DAPI staining based analysis; type: functional; conditions: dose <= 10.0 µmol/L
# KM12 = experiment: Antitumor activity against human KM12 cells harboring TPM3-TRKA fusion protein xenografted in nu/nu NCr mouse assessed as inhibition of tumor growth at 30 to 300 mg/kg, po administered twice daily for 11 days; type: functional, organism-based; conditions: dose 30-300 mg/kg, time 11.0 day
# [16] = target: Mast/stem cell growth factor receptor Kit (Homo sapiens) (UniProt P10721); experiment: Inhibition of KIT (unknown origin) at 1 uM in presence of ATP relative to control; values are per cent of control
# Chain of Mast/stem cell growth factor receptor Kit (Homo sapiens) (P10721 whole entry): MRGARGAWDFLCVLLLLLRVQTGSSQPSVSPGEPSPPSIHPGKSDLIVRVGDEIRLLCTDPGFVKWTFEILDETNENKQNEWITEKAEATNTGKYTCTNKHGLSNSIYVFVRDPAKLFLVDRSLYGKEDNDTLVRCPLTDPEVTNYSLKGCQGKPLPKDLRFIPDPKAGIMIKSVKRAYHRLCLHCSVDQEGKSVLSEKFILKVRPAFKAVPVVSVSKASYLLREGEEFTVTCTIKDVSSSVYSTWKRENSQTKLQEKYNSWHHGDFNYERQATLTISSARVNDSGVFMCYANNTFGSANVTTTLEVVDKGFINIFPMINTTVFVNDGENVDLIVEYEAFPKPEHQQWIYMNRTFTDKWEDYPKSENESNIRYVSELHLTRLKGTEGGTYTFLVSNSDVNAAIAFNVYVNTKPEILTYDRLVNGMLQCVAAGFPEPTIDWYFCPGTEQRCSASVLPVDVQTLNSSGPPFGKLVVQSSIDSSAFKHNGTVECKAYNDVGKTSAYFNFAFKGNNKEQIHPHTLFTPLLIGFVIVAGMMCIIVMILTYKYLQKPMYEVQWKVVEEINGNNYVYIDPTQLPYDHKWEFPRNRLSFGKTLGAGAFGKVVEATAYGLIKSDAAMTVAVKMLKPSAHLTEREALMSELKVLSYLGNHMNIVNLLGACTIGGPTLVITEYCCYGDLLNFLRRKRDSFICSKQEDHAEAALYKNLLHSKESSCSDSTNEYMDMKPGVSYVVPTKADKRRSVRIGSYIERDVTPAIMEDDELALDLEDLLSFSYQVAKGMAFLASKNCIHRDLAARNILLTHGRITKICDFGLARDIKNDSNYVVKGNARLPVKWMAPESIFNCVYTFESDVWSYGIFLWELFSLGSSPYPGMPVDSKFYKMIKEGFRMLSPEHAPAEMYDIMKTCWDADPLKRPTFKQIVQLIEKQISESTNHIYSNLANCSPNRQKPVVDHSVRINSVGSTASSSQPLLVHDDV
# [17] = target: Ribosomal protein S6 kinase alpha-1 (Homo sapiens) (UniProt Q15418); experiment: Inhibition of Rsk1 (unknown origin) at 1 uM in presence of ATP relative to control; values are per cent of control
# [18] = target: Serine/threonine-protein kinase Nek6 (Homo sapiens) (UniProt Q9HC98); experiment: Inhibition of NEK6 (unknown origin) at 1 uM in presence of ATP relative to control; values are per cent of control
# Chain of Serine/threonine-protein kinase Nek6 (Homo sapiens) (Q9HC98 whole entry): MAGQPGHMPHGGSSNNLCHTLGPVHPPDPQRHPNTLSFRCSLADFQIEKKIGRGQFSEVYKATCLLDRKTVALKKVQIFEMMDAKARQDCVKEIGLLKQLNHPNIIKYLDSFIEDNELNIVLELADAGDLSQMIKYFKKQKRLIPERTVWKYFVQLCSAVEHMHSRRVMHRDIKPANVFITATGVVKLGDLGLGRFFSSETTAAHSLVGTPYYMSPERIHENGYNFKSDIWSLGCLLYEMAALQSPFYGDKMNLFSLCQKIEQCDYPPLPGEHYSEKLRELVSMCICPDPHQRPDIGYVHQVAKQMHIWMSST
# BXPC-3 = experiment: Inhibition of cell proliferation in human BXPC-3 cells upto 10 umol/L incubated for 72 hrs by DAPI staining based analysis; type: functional; conditions: dose <= 10.0 µmol/L
# [19] = Inhibition of N-terminal 6His-tagged TRKC G623R mutant (506 to 829 residues) (unknown origin) expressed in Escherichia coli incubated for 60 mins by [gamma-33P]-ATP based TopCount NXT liquid scintillation assay; set-up: species or system Homo sapiens
# [20] = target: Serine/threonine-protein kinase PAK 2 (Homo sapiens) (UniProt Q13177); experiment: Inhibition of PAK2 (unknown origin) at 1 uM in presence of ATP relative to control; values are per cent of control
# Chain of Serine/threonine-protein kinase PAK 2 (Homo sapiens) (Q13177 whole entry): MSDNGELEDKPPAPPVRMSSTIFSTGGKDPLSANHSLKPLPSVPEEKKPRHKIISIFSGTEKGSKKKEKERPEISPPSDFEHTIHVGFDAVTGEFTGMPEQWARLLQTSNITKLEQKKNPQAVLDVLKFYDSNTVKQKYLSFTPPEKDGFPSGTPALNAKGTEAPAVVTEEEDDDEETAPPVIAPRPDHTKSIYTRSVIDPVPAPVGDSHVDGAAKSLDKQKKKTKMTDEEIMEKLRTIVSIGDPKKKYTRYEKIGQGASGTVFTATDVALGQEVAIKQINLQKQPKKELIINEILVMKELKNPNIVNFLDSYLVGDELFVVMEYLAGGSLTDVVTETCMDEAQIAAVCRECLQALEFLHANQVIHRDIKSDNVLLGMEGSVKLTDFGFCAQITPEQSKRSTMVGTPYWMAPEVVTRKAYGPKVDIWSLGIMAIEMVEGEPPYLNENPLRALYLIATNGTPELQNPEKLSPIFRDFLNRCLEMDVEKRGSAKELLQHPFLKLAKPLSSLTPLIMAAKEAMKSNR
structure (smiles),measurement,setting,value
C[C@@H]1CCc2ncc(F)cc2[C@H]2CCCN2c2ccn3ncc(c3n2)C(=O)N1 [SELITRECTINIB],residual activity,[1],112%
same,residual activity,[2],104%
same,residual activity,[3],109%
same,residual activity,[4],106%
same,concentration at 36 h,[5],< 1 ng/mL
same,residual activity,[6],114%
same,residual activity,Homo sapiens,112%
same,inhibition,NIH3T3,Active
same,IC50,[7],≤ 5 nM
same,inhibition,BHT-101,inactive
same,residual activity,[8],110%
same,residual activity,[9],102%
same,residual activity,[10],104%
same,residual activity,[11],85.5%
same,residual activity,[12],105%
same,residual activity,[13],134%
same,residual activity,[14],104%
same,residual activity,[15],124%
same,inhibition,SNU-16,inactive
same,inhibition,HT-29,inactive
same,inhibition,SAOS-2,inactive
same,Activity,KM12,Active
same,residual activity,[16],100%
same,residual activity,[17],109%
same,residual activity,[18],116%
same,inhibition,BXPC-3,inactive
same,IC50,[19],2.3 nM
same,residual activity,[20],108%
